The compounds below were run against HIV-1 RT wild-type enzyme (Human immunodeficiency virus type 1 group M subtype B (isolate HXB2) (HIV-1), UniProt P04585) (assay: HIV-1 reverse transcriptase inhibitory activity (RT polymerase assay)). Settings: HIV-1 RT wild-type enzyme 83 pM; RNA-dependent DNA polymerase activity; read-out: IC50.
Assay type: biochemical
Outline: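 Biotinylated DNA primer annealed to HCV-derived RNA template (16.6 nM final hybrid), with 2 μM dATP/dGTP/dCTP and 66.6 nM Ru-dUTP, after 30 min compound–enzyme preincubation at room temperature; polymerization 90 min at 37 °C, EDTA quench. Product captured on avidin plates, electrochemiluminescence read; IC50 by four-parameter logistic fit versus DMSO and 1 μM efavirenz controls.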

In order of falling IC50:
1. N#Cc1cc(Cl)cc(Oc2c(C(F)(F)F)ncn(Cc3cnc(C(F)(F)F)[nH]c3=O)c2=O)c1 [Example 131, 3-Chloro-5-[16-oxo-1-(6-oxo-2-trifluoromethyl-1,6-dihydro-pyrimidin-5-ylmethyl)-4-trifluoromethyl-1,6-dihydro-pyrimidin-5-yloxy]-benzonitrile]  435 nM
2. N#Cc1cc(Cl)cc(Oc2c(C(F)(F)F)ncn(Cc3cnc(OCC(F)(F)F)[nH]c3=O)c2=O)c1 [Example 139, 3-Chloro-5-{6-oxo-1-[6-oxo-2-(2,2,2-trifluoro-ethoxy)-1,6-dihydro-pyrimidin-5-ylmethyl]-4-trifluoromethyl-1,6-dihydro-pyrimidin-5-yloxy}-benzonitrile]  45 nM
3. N#Cc1cc(Cl)cc(Oc2c(C(F)(F)F)ncn(Cc3cnc(Oc4ccc(F)cc4)[nH]c3=O)c2=O)c1 [Example 140, 3-Chloro-5-{1-[2-(4-fluoro-phenoxy)-6-oxo-1,6-dihydro-pyrimidin-5-ylmethyl]-6-oxo-4-trifluoromethyl-1,6-dihydro-pyrimidin-5-yloxy}-benzonitrile]  36 nM
4. N#Cc1cc(Cl)cc(Oc2c(C(F)(F)F)ncn(Cc3cc(-c4ccc(OC(F)(F)F)cc4)n[nH]c3=O)c2=O)c1 [Example 116, 3-chloro-5-((6-oxo-1-((3-oxo-6-(4-(trifluoromethoxy)phenyl)-2,3-dihydropyridazin-4-yl)methyl)-4-(trifluoromethyl)-1,6-dihydropyrimidin-5-yl)oxy)benzonitrile]  21 nM
5. N#Cc1cc(Cl)cc(Oc2c(C3CC3)ncn(Cc3ccc(=O)[nH]n3)c2=O)c1 [Example 134, 3-chloro-5-((4-cyclopropyl-6-oxo-1-((6-oxo-1,6-dihydropyridazin-3-yl)methyl)-1,6-dihydropyrimidin-5-yl)oxy)benzonitrile]  17 nM
6. CN(C)c1ncc(Cn2cnc(C(F)(F)F)c(Oc3cc(Cl)cc(C#N)c3)c2=O)c(=O)[nH]1 [Example 141, 3-Chloro-5-[1-(2-dimethylamino-6-oxo-1,6-dihydro-pyrimidin-5-ylmethyl)-6-oxo-4-trifluoromethyl-1,6-dihydro-pyrimidin-5-yloxy]-benzonitrile]  13 nM
7. N#Cc1cc(Cl)cc(Oc2c(C(F)(F)F)ncn(Cc3cc(-c4ccc(C(F)(F)F)cc4)n[nH]c3=O)c2=O)c1 [Example 119, 3-chloro-5-((6-oxo-1-((3-oxo-6-(4-(trifluoromethyl)phenyl)-2,3-dihydropyridazin-4-yl)methyl)-4-(trifluoromethyl)-1,6-dihydropyrimidin-5-yl)oxy)benzonitrile]  12 nM
8. CSc1ncc(Cn2cnc(C(F)(F)F)c(Oc3cc(Cl)cc(C#N)c3)c2=O)c(=O)[nH]1 [Example 132, 3-chloro-5-((1-((2-(methylthio)-6-oxo-1,6-dihydropyrimidin-5-yl)methyl)-6-oxo-4-(trifluoromethyl)-1,6-dihydropyrimidin-5-yl)oxy)benzonitrile]  12 nM
9. CNc1ncc(Cn2cnc(C(F)(F)F)c(Oc3cc(Cl)cc(C#N)c3)c2=O)c(OC)n1 [Example 138, 3-chloro-5-((1-((4-methoxy-2-(methylamino)pyrimidin-5-yl)methyl)-6-oxo-4-(trifluoromethyl)-1,6-dihydropyrimidin-5-yl)oxy)benzonitrile]  11 nM
10. CNc1ncc(Cn2cnc(C(F)(F)F)c(Oc3cc(Cl)cc(C#N)c3)c2=O)c(=O)[nH]1 [Example 137, 3-chloro-5-((1-((2-(methylamino)-6-oxo-1,6-dihydropyrimidin-5-yl)methyl)-6-oxo-4-(trifluoromethyl)-1,6-dihydropyrimidin-5-yl)oxy)benzonitrile]  9 nM
11. N#Cc1cc(Cl)cc(Oc2c(C(F)(F)F)ncn(Cc3cc(-c4ccc(C(O)C(F)F)cc4)n[nH]c3=O)c2=O)c1 (centres unmarked) [Example 125, 3-chloro-5-((1-((6-(4-(2,2-difluoro-1-hydroxyethyl)phenyl)-3-oxo-2,3-dihydropyridazin-4-yl)methyl)-6-oxo-4-(trifluoromethyl)-1,6-dihydropyrimidin-5-yl)oxy)benzonitrile]  8 nM
12. Cc1ncc(Cn2cnc(C(F)(F)F)c(Oc3cc(Cl)cc(C#N)c3)c2=O)c(=O)[nH]1 [Example 133, 3-chloro-5-((1-((2-methyl-6-oxo-1,6-dihydropyrimidin-5-yl)methyl)-6-oxo-4-(trifluoromethyl)-1,6-dihydropyrimidin-5-yl)oxy)benzonitrile]  8 nM
13. N#Cc1cc(Cl)cc(Oc2c(C(F)(F)F)ncn(Cc3cnc(O)[nH]c3=O)c2=O)c1 [Example 135, 3-chloro-5-((1-((2-hydroxy-6-oxo-1,6-dihydropyrimidin-5-yl)methyl)-6-oxo-4-(trifluoromethyl)-1,6-dihydropyrimidin-5-yl)oxy)benzonitrile]  8 nM
14. N#Cc1cc(Cl)cc(Oc2c(C(F)(F)F)ncn(Cc3cc(-c4ccc(C#N)c(F)c4)n[nH]c3=O)c2=O)c1 [Example 122, 4-(5-((5-(3-chloro-5-cyanophenoxy)-6-oxo-4-(trifluoromethyl)pyrimidin-1(6H)-yl)methyl)-6-oxo-1,6-dihydropyridazin-3-yl)-2-fluorobenzonitrile]  6 nM
15. N#Cc1cc(Cl)cc(Oc2c(C(F)(F)F)ncn(Cc3cc(-c4ccc(Cl)c(F)c4)n[nH]c3=O)c2=O)c1 [Example 123, 3-chloro-5-((1-((6-(4-chloro-3-fluorophenyl)-3-oxo-2,3-dihydropyridazin-4-yl)methyl)-6-oxo-4-(trifluoromethyl)-1,6-dihydropyrimidin-5-yl)oxy)benzonitrile]  6 nM
16. N#Cc1cc(Cl)cc(Oc2c(C(F)(F)F)ncn(Cc3cc(-c4cccnc4)n[nH]c3=O)c2=O)c1 [Example 124, 3-chloro-5-((6-oxo-1-((3-oxo-6-(pyridin-3-yl)-2,3-dihydropyridazin-4-yl)methyl)-4-(trifluoromethyl)-1,6-dihydropyrimidin-5-yl)oxy)benzonitrile]  6 nM
17. N#Cc1cc(Cl)cc(Oc2c(C(F)(F)F)ncn(Cc3cnc[nH]c3=O)c2=O)c1 [Example 136, 3-chloro-5-((6-oxo-1-((6-oxo-1,6-dihydropyrimidin-5-yl)methyl)-4-(trifluoromethyl)-1,6-dihydropyrimidin-5-yl)oxy)benzonitrile]  6 nM
18. N#Cc1cc(Cl)cc(Oc2c(C(F)(F)F)ncn(Cc3cc(-c4ccc(F)c(F)c4)n[nH]c3=O)c2=O)c1 [Example 121, 3-chloro-5-((1-((6-(3,4-difluorophenyl)-3-oxo-2,3-dihydropyridazin-4-yl)methyl)-6-oxo-4-(trifluoromethyl)-1,6-dihydropyrimidin-5-yl)oxy)benzonitrile]  5 nM
19. N#Cc1cc(Cl)cc(Oc2c(C(F)(F)F)ncn(Cc3cc(-c4ccnc5[nH]ccc45)n[nH]c3=O)c2=O)c1 [Example 126, 3-chloro-5-((6-oxo-1-((3-oxo-6-(1H-pyrrolo[2,3-b]pyridin-4-yl)-2,3-dihydropyridazin-4-yl)methyl)-4-(trifluoromethyl)-1,6-dihydropyrimidin-5-yl)oxy)benzonitrile]  4 nM
20. N#Cc1cc(Cl)cc(Oc2c(C(F)(F)F)ncn(Cc3cc(-c4cccc(F)c4F)n[nH]c3=O)c2=O)c1 [Example 120, 3-chloro-5-((1-((6-(2,3-difluorophenyl)-3-oxo-2,3-dihydropyridazin-4-yl)methyl)-6-oxo-4-(trifluoromethyl)-1,6-dihydropyrimidin-5-yl)oxy)benzonitrile]  3 nM
